Test results taken from patent publication US8084448B2, “Organic compounds” (Novartis AG, priority 2006, dated 2011).
Where a name gives a salt, the structure may show the parent alone.

Compound | melting point [°C]
O=C1CN(c2ccc(-c3ccoc3)cc2O)S(=O)(=O)N1 (as salt: potassium) [Example 272, 5-(4-Furan-3-yl-2-hydroxyphenyl)-1,1-dioxo-1,2,5-thiadiazolidin-3-one] | 230 to 235
O=C1CN(c2ccc(OCCc3ccccc3)cc2O)S(=O)(=O)N1 [Example 55, 5-(2-Hydroxy-4-phenethyloxyphenyl)-1,1-dioxo-1,2,5-thiadiazolidin-3-one] | 65 to 70
COC(=O)c1c(O)cccc1OCCCCNC(=O)CCc1ccc(N2CC(=O)NS2(=O)=O)c(O)c1 [Example 110, 2-Hydroxy-6-(4-{3-[3-hydroxy-4-(1,1,4-trioxo-1,2,5-thiadiazolidin-2-yl)-phenyl]-propionylamino}-butoxy)-benzoic Acid Methyl Ester] | 85 to 90

Now from value to compound:

melting point [°C] | Compound
185 to 188 | O=C(O)COc1ccc(N2CC(=O)NS2(=O)=O)c(O)c1 [Example 296, [3-Hydroxy-4-(1,1,4-trioxo-1,2,5-thiadiazolidin-2-yl)-phenoxy]-acetic Acid]
126 to 180 | O=C1CN(c2ccc(S(=O)(=O)c3ccccc3)cc2O)S(=O)(=O)N1 [Example 318, 5-(4-Benzenesulfonyl-2-hydroxyphenyl)-1,1-dioxo-1,2,5-thiadiazolidin-3-one]
